Holding throughout (type): cell-based
One test concerns lung (A549). The test can be described thus: Cell viability (ATP luminescence) IC50 determination, A549. The settings on record: Homo sapiens, A549 cells, 72 hours incubation, vs DMSO vehicle control. As for the experimental part: (§1) In yet another aspect of the instant invention, the IC50 or the half maximal inhibitory concentration of the candidate compounds were determined to assess drug potency and potential dosing regimens for in vivo use. One of ordinary skill in the art is readily able to ascertain such information using commonly known methodologies. As it has been well described in the art, IC50 represents and measures how much of a particular substance/molecule is needed to inhibit some biological process by 50%. In the instant case, the IC50 of the candidate compounds were determined as the concentration that led to a response of 50% compared to the vehicle control cells.
(§2) The cell lines listed are maintained at approximately 5% CO2, 37° C., 95% relative humidity in the media appropriate for that cell line. The cells are sub-cultured every two to three days and plated in clear bottom 96-well plates at a density of 1×10^4 cells/well and incubated at ca. 5% CO2, 37° C. overnight prior to initiation of the assay. To begin cell viability assays, the media in the cell plate (100 μL) is replaced with fresh media (100 μL). The test articles are serially diluted […] in fresh media in duplicate and added to the cells (100 μL) at final sample concentrations of 0.46, 1.37, 4.12, 12.35, 37.04, 111.1, 333.3 and 1000 μM (≤1% DMSO) in a total volume of 200 μL. Wells containing no cells and wells containing cells lysed with 0.1% Triton-X are used for baseline controls. Tamoxifen is used as a known control for each assay and DMSO only will be run as vehicle control. The samples are incubated at ca. 37° C. in humidified 5% CO2 atmosphere for 72 hours. The plate is monitored once a day during the incubation period, paying special attention to the level of confluence. If the cells approach confluence prior to the end of the 72 hour incubation period, the experiment is terminated and cell viability measured as described below.
(§3) Cell viability is determined using a commercially available kit to determine ATP levels by luminescence. Briefly, the cell plate has the media removed and replaced with 100 μL of fresh media, and the buffer and lyophilized substrate are equilibrated to room temperature. The buffer is used to reconstitute the substrate just prior to addition to the wells of the cell plate (100 μL per well). The plate is placed into the Infinite M200 plate reader, allowed to shake for 10 minutes followed by a 10 minute wait period. The plate is then read using an integration time of 0.5 sec with no attenuation.
(§4) The mean baseline controls (wells with Triton X-100 or no cells) are subtracted from the total luminescence to give the net luminescence for that well. This total is compared to the control of DMSO only. An IC50 is calculated as the concentration that led to a response of 50% compared to the vehicle control cells.

A further test deals with Pancreas (Capan-1). Description: Cell viability (ATP luminescence) IC50 determination, Capan-1. The settings on record: Homo sapiens, Capan-1 cells, 72 hours incubation, vs DMSO vehicle control. As to the method:
as §1, §2, §3, §4

The next test has as its system ovary (Ovcar-3). The test can be described thus: Cell viability (ATP luminescence) IC50 determination, Ovcar-3. The settings on record: Homo sapiens, Ovcar-3 cells, 72 hours incubation, vs DMSO vehicle control. As to the method:
as §1, §2, §3, §4

Test [1] concerns cells lines derived from breast, lung, colon, prostate, endometrial and ovarian cancers. Description: In vitro studies of tumor cell growth inhibition in cancer cell lines. The settings on record: CYP19 positive (MDA-MB-213 and SK-OV-3) vs CYP19 negative (MCF-7 and NIH:OVCAR-3), where it is reduced.

From patent US10174070B2, “6-substituted estradiol derivatives and methods of use” (Endece LLC, priority 2005, dated 2019) come the findings set out here.

As to `COC[C@H]1C[C@@H]2[C@H](CC[C@]3(C)C(O)CC[C@@H]23)c2ccc(O)cc21` (stereo partly drawn) [Compound 3, (6S,8R,9S,13S,14S)-6-(methoxymethyl)-13-methyl-7,8,9,11,12,13,14,15,16,17-decahydro-6H-cyclopenta[a]phenanthrene-3,17-diol], the IC50 stood at 84 µM in the test on lung (A549), 168 µM in the test with Pancreas (Capan-1) and 94 µM in the test on ovary (Ovcar-3).

As for `COC[C@@H]1C[C@@H]2[C@H](CC[C@]3(C)C(O)CC[C@@H]23)c2ccc(O)cc21` (stereo partly drawn) [Compound 4, (6R,8R,9S,13S,14S)-6-(methoxymethyl)-13-methyl-7,8,9,11,12,13,14,15,16,17-decahydro-6H-cyclopenta[a]phenanthrene-3,17-diol], the results for the IC50 in the test with lung (A549), with Pancreas (Capan-1) and in the test with ovary (Ovcar-3) were 70 µM, 32 µM and 100 µM, respectively.

On to `C[C@]12CC[C@@H]3c4ccc(O)cc4[C@H](CO)C[C@H]3[C@@H]1CCC2O` (stereo partly drawn) [Compound 8, (6R,8R,9S,13S,14S)-6-(hydroxymethyl)-13-methyl-7,8,9,11,12,13,14,15,16,17-decahydro-6H-cyclopenta[a]phenanthrene-3,17-diol], for which the IC50 with lung (A549) stood at 184 µM; in the test on Pancreas (Capan-1), 212 µM; in the test on ovary (Ovcar-3) it was 221 µM.

As for `COC[C@@H]1C[C@@H]2[C@H](CC[C@]3(C)C(O)CC[C@@H]23)[C@@]2(C)CCC(O)CC12` (stereo partly drawn) [Compound 9, (6R,8R,9S,10R,13S,14S)-6-(methoxymethyl)-10,13-dimethylhexadecahydro-1H-cyclopenta[a]phenanthrene-3,17-diol], the IC50 in the test on lung (A549), with Pancreas (Capan-1) and in the test on ovary (Ovcar-3) was above 1000 µM in each case.

In the case of `C[C@]12CC[C@@H]3c4ccc(O)cc4[C@H](CON)C[C@H]3[C@@H]1CCC2O` (stereo partly drawn) [Compound 10, (6R,8R,9S,13S,14S)-6-((aminooxy)methyl)-13-methyl-7,8,9,11,12,13,14,15,16,17-decahydro-6H-cyclopenta[a]phenanthrene-3,17-diol], the IC50 in the test on lung (A549) was determined as 170 µM; with Pancreas (Capan-1), 277 µM; with ovary (Ovcar-3) it was 317 µM.

As to `CO[C@@H]1C[C@@H]2[C@H](CC[C@]3(C)C(O)CC[C@@H]23)c2ccc(O)cc21` (stereo partly drawn) [Compound 18, (6R,8R,9S,13S,14S)-6-methoxy-13-methyl-7,8,9,11,12,13,14,15,16,17-decahydro-6H-cyclopenta[a]phenanthrene-3,17-diol], the results for the IC50 in the test on lung (A549), in the test with Pancreas (Capan-1) and in the test with ovary (Ovcar-3) were 139 µM, 192 µM and 207 µM, respectively.

Turning to `COCC[C@@H]1C[C@@H]2[C@H](CC[C@]3(C)C(O)CC[C@@H]23)c2ccc(O)cc21` (stereo partly drawn) [Compound 19, (6S,8R,9S,13S,14S)-6-(2-methoxyethyl)-13-methyl-7,8,9,11,12,13,14,15,16,17-decahydro-6H-cyclopenta[a]phenanthrene-3,17-diol], the values for the IC50 in the test on lung (A549), in the test with Pancreas (Capan-1) and in the test with ovary (Ovcar-3) were 80 µM, 32 µM and 96 µM, respectively.

On to `COCCCC[C@@H]1C[C@@H]2[C@H](CC[C@]3(C)C(O)CC[C@@H]23)c2ccc(O)cc21` (stereo partly drawn) [Compound 20, (6R,8R,9S,13S,14S)-6-(4-methoxybutyl)-13-methyl-7,8,9,11,12,13,14,15,16,17-decahydro-6H-cyclopenta[a]phenanthrene-3,17-diol], for which the IC50 is 34 µM in the test with lung (A549), 16 µM with Pancreas (Capan-1) and 60 µM in the test on ovary (Ovcar-3).

For the molecule `COCCCCCC[C@@H]1C[C@@H]2[C@H](CC[C@]3(C)C(O)CC[C@@H]23)c2ccc(O)cc21` (stereo partly drawn) [Compound 21, (6R,8R,9S,13S,14S)-6-(6-methoxyhexyl)-13-methyl-7,8,9,11,12,13,14,15,16,17-decahydro-6H-cyclopenta[a]phenanthrene-3,17-diol], the IC50 with lung (A549) was determined as 17 µM; in the test on Pancreas (Capan-1), 23 µM; in the test on ovary (Ovcar-3), 24 µM.

`CCC(CCCCC[C@@H]1C[C@@H]2[C@H](CC[C@]3(C)C(O)CC[C@@H]23)c2ccc(O)cc21)OC` (stereo partly drawn) [Compound 22, (6R,8R,9S,13S,14S)-6-(6-methoxyoctyl)-13-methyl-7,8,9,11,12,13,14,15,16,17-decahydro-6H-cyclopenta[a]phenanthrene-3,17-diol]: the IC50 in the test with lung (A549) worked out at 13 µM; in the test on Pancreas (Capan-1), 22 µM; in the test on ovary (Ovcar-3), 20 µM.

Turning to `CCCCCCCCCCCCCCCCCC(=O)OC1CC[C@H]2[C@@H]3C[C@@H](COC)c4cc(O)ccc4[C@H]3CC[C@]12C` (stereo partly drawn) [Compound 23, (6R,8R,9S,13S,14S)-3-hydroxy-6-(methoxymethyl)-13-methyl-7,8,9,11,12,13,14,15,16,17-decahydro-6H-cyclopenta[a]phenanthren-17-yl stearate], the results for the IC50 in the test with lung (A549), in the test with Pancreas (Capan-1) and with ovary (Ovcar-3) were above 1000 µM, 775 µM and above 1000 µM, respectively.

As to `COC[C@@H]1C[C@@H]2[C@H](CC[C@]3(C)C(=O)CC[C@@H]23)[C@@]2(C)C=CC(=O)C=C12` [Compound 24, (6R,8R,9S,10R,13S,14S)-6-(methoxymethyl)-10,13-dimethyl-7,8,9,10,11,12,13,14,15,16-decahydro-3H-cyclopenta[a]phenanthrene-3,17(6H)-dione], the “in vitro studies of tumor cell growth, by CYP19 status of the cell line” value in test [1] was “highest in cell lines that are CYP19 positive”.

Turning to `CCCOCCCC[C@@H]1C[C@@H]2[C@H](CC[C@]3(C)C(O)CC[C@@H]23)c2ccc(O)cc21` (stereo partly drawn) [Compound 30, (6R,8R,9S,13S,14S)-13-methyl-6-(4-propoxybutyl)-7,8,9,11,12,13,14,15,16,17-decahydro-6H-cyclopenta[a]phenanthrene-3,17-diol], the IC50 with lung (A549) worked out at 5 µM; in the test with Pancreas (Capan-1) it was 10 µM; with ovary (Ovcar-3), 29 µM.

In the case of `CCOCCCCC[C@@H]1C[C@@H]2[C@H](CC[C@]3(C)C(O)CC[C@@H]23)c2ccc(O)cc21` (stereo partly drawn) [Compound 31, (6R,8R,9S,13S,14S)-13-methyl-6-(5-ethoxypentyl)-7,8,9,11,12,13,14,15,16,17-decahydro-6H-cyclopenta[a]phenanthrene-3,17-diol], the values for the IC50 in the test with lung (A549), in the test with Pancreas (Capan-1) and in the test with ovary (Ovcar-3) were 7 µM, 15 µM and 28 µM, respectively.
